Among the data in the METLIN SMRT retention time set (Domingo-Almenara et al. 2019) are RP-LC retention time values, retold here.

Molecules are shown by their SMILES.

A short description of the series: gradient 5% acetonitrile 3 min, to 50% in 2 min, to 85% in 15 min, held 3 min, 100 µL/min. As to conditions: column: Zorbax Extend-C18 2.1 x 50 mm; eluents: water / acetonitrile, 0.1% formic acid. The essentials:
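Pure standards were run in mixtures of ~100 molecules by HPLC coupled to a quadrupole time-of-flight mass spectrometer. The column was a Zorbax Extend-C18 (2.1 × 50 mm, 1.8 μm) at 100 μL/min, with water and acetonitrile each containing 0.1% formic acid, in positive and negative ionization mode. Dead and dwell volumes were 40 μL and 900 μL. Retention time was taken from computationally picked adduct peaks, each manually inspected, with data collected over 3 months.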
`CC(O)CNC(=O)C1CCCN(c2ccc(Sc3ccc(Br)cc3)nn2)C1` (stereo not given) showed an RP-LC retention time of 688 s. In the case of `CCOc1ccc(NC(=O)Cn2ccc3ccc(-c4nnc(CC)o4)cc32)cc1` it was 851 s; in that of `Cc1ccc(CN2CCCC(c3nc(-c4cnccn4)no3)CCNC(=O)CC2)s1` (stereo not given), 603 s; in that of `COC(=O)c1ccccc1NC(=O)CSc1cc(-n2nc(C)cc2C)ncn1`, 1130 s.

Compound `Cc1c(C(=O)NCCCN2CCOCC2)sc2ncnc(N3CCN(c4ccccn4)CC3)c12` displayed an RP-LC retention time of 558 s. In the case of `CCCNC(=O)C1CCCN(S(=O)(=O)c2cc(-c3noc(CC)n3)cs2)C1` (stereo not given) it was 841 s; in that of `CN(C)C(=O)c1cccc2c1CCN2C(=O)c1ccc(F)cc1`, 719 s. Next, `COc1cccc(CC(=O)N2CCc3cc(-c4csc(C)n4)ccc32)c1`: 967 s. Next, `COc1cccc(Cn2cnc3c(-c4ccc(OC)c(OC)c4)csc3c2=O)c1`: 947 s. For `CCCNC(=O)N1CC(c2nc(-c3ccc(F)cc3)no2)C2(CCOCC2)C1` (stereo not given), the RP-LC retention time came out at 793 s.

`CCOC(=O)C1CCN(C(=O)c2nc(N3CCCCC3)c3c(C)cc(C)nc3n2)CC1`: the RP-LC retention time worked out at 595 s. `C=CCc1ccc(OCC(O)CN2C(C)CCCC2C)c(OC)c1` (stereo not given) returned an RP-LC retention time of 603 s.

In turn, `CCCn1c(=O)c2cc(C(=O)NCc3ccccc3C)nn2c2ccccc21` had an RP-LC retention time of 1010 s. Next, `Cc1ccc(CNC(=O)c2cn3ccc(C)cc3n2)cc1`: 670 s; `COC(=O)c1ccc(NC(=O)NCc2noc3ccccc23)cc1`: 824 s. Next, `O=C(NC1CC1)c1nc(C(=O)N2CCC3(CC2)OCCO3)cs1`: 649 s; `COc1cc(=O)c(C(N)=O)nn1-c1ccc(F)cc1`: 579 s; `CCN(CC)C(=O)c1ccc2c(c1)ncn2CCNC(=O)Nc1ccc(Br)cc1`: 644 s.

In the case of `COc1ccccc1Cn1c(COc2ccccc2OC)nc2ccccc21`, the RP-LC retention time was found to be 726 s. In the case of `Cc1ccc(-c2csc(-n3nc(C)c(CC(=O)NCc4ccccc4)c3C)n2)cc1` it was 1160 s; in that of `O=C(CCCc1c[nH]c2ccccc12)NC1CCN(c2ccc(=O)[nH]n2)C1` (stereo not given), 640 s. In the case of `Cc1nc(-c2cc(S(=O)(=O)NCc3ccc(F)cc3F)c(C)s2)cs1` it was 956 s; in that of `CC(NC(=O)C1CCCN(C(=O)c2cc3sccc3n2C)C1)C12CC3CC(CC(C3)C1)C2` (stereo not given), 1090 s. In the case of `O=C(NCc1ccccc1Cl)C(=O)Nc1cccc(N2CCCCC2=O)c1` it was 751 s; in that of `COc1ccc(Cc2nc3ccc(C(=O)NCc4ccc(C)o4)cc3o2)cc1`, 918 s. In turn, `CC1(C(=O)NC2CCCC2)Cn2cnc(C(=O)NCc3ccc(F)cc3)c2C(=O)N1C1CC1` (stereo not given) showed an RP-LC retention time of 759 s. Next, `Cc1cccc(N2CCN(C(=O)c3cn(-c4cc(N5CCSCC5)ncn4)cn3)CC2)c1`: 932 s; `CCc1nn2c(CNS(=O)(=O)c3ccc(C)cc3)c(-c3ccccc3)nc2s1`: 973 s; `Cc1ccc(-c2coc(-c3ccc(NC(=O)c4cccs4)cc3)n2)cc1`: 1170 s.

Regarding `CSc1ccc(CNC(=O)Cc2c(C(=O)O)c(C)cn2C)cc1`, the RP-LC retention time turned out to be 757 s. For `CCc1cc(=O)n(CC(=O)Nc2ccc(F)cc2F)c(N2CCOCC2)n1`, the RP-LC retention time stood at 743 s.

In the case of `Cc1nn(C)c(C)c1-c1cc(C(=O)O)[nH]n1`, the RP-LC retention time turned out to be 574 s.

`CCN1CCCn2cc(S(=O)(=O)Nc3ccc(Cl)cc3F)cc2C1=O` registered an RP-LC retention time of 763 s.

Regarding `Cc1ccc(NC(=O)C(=O)NC(C)c2ccccc2)cc1C` (stereo not given), the RP-LC retention time was 1010 s. Next, `COc1cc(/C=C2\CCCN([C@@H](C)c3ccc(F)cc3)C2=O)ccc1-n1cnc(C)c1`: 834 s. Next, `COc1ccc(N2CCN(CC(O)COc3c(C)cccc3C)CC2)cc1` (stereo not given): 698 s; `CCOC(=O)c1ccc(NC(=O)c2c(C)oc3nc(C)nc(N4CCCC4)c23)cc1`: 848 s. In the case of `CCn1cc(S(=O)(=O)Nc2ccc(C)cc2F)c2cccnc21` it was 869 s; in that of `CCn1cc(S(=O)(=O)N2CCCC2c2noc(CO)n2)cn1` (stereo not given), 619 s. The compound `O=C(NCCn1c(=O)n(Cc2ccccc2)c2cccnc21)c1ccc2c(c1)OCO2` displayed an RP-LC retention time of 773 s.

`COc1cc(OC)c(NC(=O)Cn2c(N(C)Cc3ccccc3)nc(C)cc2=O)cc1Cl`: the RP-LC retention time is 818 s. The compound `COc1ccc2nc(C(=O)NCc3ccccc3)cn2n1` returned an RP-LC retention time of 772 s. `Cc1ccc(NC(=O)CSc2nc(N3CCCCC3)nc3ccccc23)c(Cl)c1` came in with an RP-LC retention time of 901 s. In the case of `COc1ccccc1NC(=O)c1ccc2nc(-c3ccccc3)cn2c1` it was 725 s.

`COCC(=O)N1CCCc2ccc(NC(=O)CSc3ccc(F)cc3)cc21` gave an RP-LC retention time of 732 s. Next, `CCc1cccc(C)c1Nc1c(-c2ccc(OC)cc2)nc2cnccn12`: 873 s; `CCCN1C(=O)COc2ccc(-c3noc(-c4cccc(NC(C)=O)c4)n3)cc21`: 925 s. Next, `COc1ccccc1CC(=O)Nc1ccc(-c2nc(Cn3cc(C)cn3)c(C)o2)cc1`: 909 s; `Cc1nc(Nc2ccc(F)cn2)sc1C(=O)NC(C)c1ccccc1` (stereo not given): 861 s. In the case of `O=C(NC1CC1)[C@@H]1C[C@H](Oc2ccccc2)CN1C(=O)C1CC1` it was 684 s; in that of `CCN1C(=O)COc2ccc(-c3csc(NC(=O)C4CCCO4)n3)cc21` (stereo not given), 838 s.

Turning to `Cc1ccc(-c2cc3c4nnc(SCC(=O)Nc5cccc(Cl)c5)n4ccn3n2)cc1C`, the RP-LC retention time amounted to 1060 s.

In turn, `CC(C)CCNC(=O)NCCC1CCN(S(=O)(=O)c2ccc(F)cc2)CC1` registered an RP-LC retention time of 880 s. `Cc1nc(-c2cccnc2)nc2c1CCC(=O)N2CC1CCCCC1` gave an RP-LC retention time of 963 s.

Take `Cc1ccc(-c2cc3c(=O)n(Cc4nc(-c5ccc(Br)cc5)no4)ncn3n2)c(C)c1`: the RP-LC retention time came out at 1340 s. Next, `COc1ccc(C)cc1Nc1c(-c2nc(C)no2)cnc2nc(C)ccc12`: 764 s; `Cc1ccc(Sc2nccnc2N2CCCC(C(=O)N3CCN(c4ccc(C)cc4)CC3)C2)cc1` (stereo not given): 1290 s. Compound `COCCCn1c(=O)c2ccccc2n(Cc2nc(-c3ccc(C)cc3)no2)c1=O` returned an RP-LC retention time of 1060 s. In the case of `Cc1cc(C)n(-c2ccnc(NCc3ccc(F)cc3)n2)n1` it was 829 s; in that of `Cc1ccc(NC(=O)Cn2nc(N3CCOCC3)c3ccccc3c2=O)cc1`, 789 s.
